This is an account of results in patent US10941113B2, “Sulfamoyl-arylamides and the use thereof as medicaments for the treatment of hepatitis B” (Janssen Sciences Ireland UC, priority 2013, dated 2021).

Common to all, as to assay type: cell-based
In data set [1] the test system is HBV. Description: Anti-HBV activity, HepG2.2.15 stable transfected cell line, HBV DNA from secreted virions by realtime PCR. The note with it: Hepatitis B virus, 144 h, HepG2.2.15 cells, 6 days of treatment.
The nature of data set [2]: Cytotoxicity in HepG2 cells, Resazurin assay. The settings on record: human, incubated 4 days, Resazurin viability.
Data set [3] has as its system HBV. Description: Anti-HBV activity, HepG2.117 inducible HBV producing cell line (Tet-off), intracellular HBV DNA by realtime PCR. The settings on record: Hepatitis B virus, 72 h, HepG2.117 cells, 3 days of treatment.

A word on the EC50: it is the concentration at which the effect is half-maximal. What is called CC50 is the concentration giving 50% cytotoxicity. A lower CC50 goes with greater toxicity to the cells. `CCC[C@@H](CO)NS(=O)(=O)c1cccc(C(=O)Nc2ccc(F)c(C)c2)c1` [Compound 12]: the half-maximal effective concentration (EC50) was determined as 650 nM in the data set with HBV [1] and 820 nM with HBV [3]. In addition, in data set [2], the CC50 at 4 days was more than 25000 nM.
The like results for `Cc1cc(NC(=O)c2cccc(S(=O)(=O)NC(C)CN(C)C)c2)ccc1F` (stereo not drawn) [Compound 3] were, in that order, 7500 nM, 1100 nM and more than 25000 nM.
